Source: the supplement of paper PMC10307832

Experiments:
Assay in all cases: relative viability (nuclei count vs DMSO), 5 days (fraction); higher = more cells survive
[1] = system: EBC-1
In short: (§1)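 Medians of duplicate plates are given as relative viability. That measure is the nuclei count in treated wells divided by the count in vehicle wells. Counts were taken on 4× images of lung cancer cell lines in 1536-well plates, 5 days after pin-tool dosing the day after seeding with one drug alone or a fixed anchor-drug dose plus five library-drug doses (not always all listed) in √10 steps.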

[2] = system: Calu-6
In short: as §1

[3] = system: IA-LM
In short: as §1

[4] = system: NCI-H1703
In short: as §1

[5] = system: NCI-H1299
In short: as §1

[6] = system: A549
In short: as §1

[7] = system: NCI-H1563
In short: as §1

O=c1[nH]c2ccccc2n1C1CCN(CCCC(c2ccc(F)cc2)c2ccc(F)cc2)CC1 [Pimozide] + C[C@]1(O)C[C@@H](c2nc(-c3ccc4ccc(-c5ccccc5)nc4c3)c3c(N)nccn32)C1 [Linsitinib] (partner 1 µM)
relative viability ([1]; first compound 0.08 µM): 0.867 | relative viability ([1]; first compound 0.253 µM): 0.844 | relative viability ([1]; first compound 0.8 µM): 0.766 | relative viability ([1]; first compound 2.53 µM): 0.821 | relative viability ([1]; first compound 8 µM): 0.892 | relative viability ([2]; first compound 0.08 µM): 0.986 | relative viability ([2]; first compound 0.253 µM): 0.94 | relative viability ([2]; first compound 0.8 µM): 0.843 | relative viability ([2]; first compound 2.53 µM): 0.881 | relative viability ([2]; first compound 8 µM): 0.913 | relative viability ([3]; first compound 0.08 µM): 0.652 | relative viability ([3]; first compound 0.253 µM): 0.566 | relative viability ([3]; first compound 0.8 µM): 0.356 | relative viability ([3]; first compound 2.53 µM): 0.456 | relative viability ([3]; first compound 8 µM): 0.759 | relative viability ([4]; first compound 0.08 µM): 0.637 | relative viability ([4]; first compound 0.253 µM): 0.544 | relative viability ([4]; first compound 0.8 µM): 0.637 | relative viability ([4]; first compound 2.53 µM): 0.514 | relative viability ([4]; first compound 8 µM): 0.553 | relative viability ([5]; first compound 0.08 µM): 0.949 | relative viability ([5]; first compound 0.253 µM): 0.945 | relative viability ([5]; first compound 0.8 µM): 0.923 | relative viability ([5]; first compound 2.53 µM): 0.899 | relative viability ([5]; first compound 8 µM): 0.949 | relative viability ([6]; first compound 0.08 µM): 0.426 | relative viability ([6]; first compound 0.253 µM): 0.497 | relative viability ([6]; first compound 0.8 µM): 0.627 | relative viability ([6]; first compound 2.53 µM): 0.548 | relative viability ([6]; first compound 8 µM): 0.619 | relative viability ([7]; first compound 0.08 µM): 1.12 | relative viability ([7]; first compound 0.253 µM): 1.19 | relative viability ([7]; first compound 0.8 µM): 1.35 | relative viability ([7]; first compound 2.53 µM): 1.16 | relative viability ([7]; first compound 8 µM): 0.861

O=c1[nH]c2ccccc2n1C1CCN(CCCC(c2ccc(F)cc2)c2ccc(F)cc2)CC1 [Pimozide] + Cc1nc(NC(=O)N2CCC[C@H]2C(N)=O)sc1-c1ccnc(C(C)(C)C(F)(F)F)c1 [Alpelisib] (partner 2 µM)
relative viability ([1]; first compound 0.08 µM): 0.895 | relative viability ([1]; first compound 0.253 µM): 0.724 | relative viability ([1]; first compound 0.8 µM): 0.823 | relative viability ([1]; first compound 2.53 µM): 0.796 | relative viability ([1]; first compound 8 µM): 0.728 | relative viability ([2]; first compound 0.08 µM): 0.938 | relative viability ([2]; first compound 0.253 µM): 0.999 | relative viability ([2]; first compound 0.8 µM): 0.92 | relative viability ([2]; first compound 2.53 µM): 0.844 | relative viability ([2]; first compound 8 µM): 0.883 | relative viability ([3]; first compound 0.08 µM): 0.695 | relative viability ([3]; first compound 0.253 µM): 0.846 | relative viability ([3]; first compound 0.8 µM): 0.666 | relative viability ([3]; first compound 2.53 µM): 0.894 | relative viability ([3]; first compound 8 µM): 0.853 | relative viability ([4]; first compound 0.08 µM): 0.323 | relative viability ([4]; first compound 0.253 µM): 0.325 | relative viability ([4]; first compound 0.8 µM): 0.385 | relative viability ([4]; first compound 2.53 µM): 0.258 | relative viability ([4]; first compound 8 µM): 0.274 | relative viability ([5]; first compound 0.08 µM): 1.04 | relative viability ([5]; first compound 0.253 µM): 0.981 | relative viability ([5]; first compound 0.8 µM): 1.04 | relative viability ([5]; first compound 2.53 µM): 1.07 | relative viability ([5]; first compound 8 µM): 1.12 | relative viability ([6]; first compound 0.08 µM): 0.727 | relative viability ([6]; first compound 0.253 µM): 0.762 | relative viability ([6]; first compound 0.8 µM): 0.678 | relative viability ([6]; first compound 2.53 µM): 0.707 | relative viability ([6]; first compound 8 µM): 0.617 | relative viability ([7]; first compound 0.08 µM): 0.919 | relative viability ([7]; first compound 0.253 µM): 0.814 | relative viability ([7]; first compound 0.8 µM): 0.819 | relative viability ([7]; first compound 2.53 µM): 0.798 | relative viability ([7]; first compound 8 µM): 0.739
